# According to publication PMC5218480 (PLoS ONE, 2017):
# System: MV-4-11 cells
# Assay: Gene expression microarray analysis (Affymetrix PrimeView) and GSEA
# Assay type: cell-based, human
# Parameters: RFU PODN (11730768_x_at) / Fold change /veh PODN (11730768_x_at) / RFU LINC00158 (11744669_a_at) / Fold change /veh LINC00158 (11744669_a_at) / RFU DUSP10 (11751237_a_at) / Fold change /veh DUSP10 (11751237_a_at) / RFU ID3 (11757404_x_at) / Fold change /veh ID3 (11757404_x_at) / RFU PLEKHG5 (11737974_s_at) / Fold change /veh PLEKHG5 (11737974_s_at) / RFU LRRC4B (11730491_at) / Fold change /veh LRRC4B (11730491_at) / RFU GIMAP4 (11747438_a_at) / Fold change /veh GIMAP4 (11747438_a_at) / RFU KRT8 (11758183_x_at) / Fold change /veh KRT8 (11758183_x_at) / RFU CNN1 (11734310_a_at) / Fold change /veh CNN1 (11734310_a_at) / RFU VPS37D (11726825_at) / Fold change /veh VPS37D (11726825_at) / RFU C10orf10 (11716522_x_at) / Fold change /veh C10orf10 (11716522_x_at) / RFU KIR2DL2 /// KIR2DL4 /// KIR2DL5A /// KIR2DL5B /// KIR2DS1 /// KIR2DS2 /// KIR2DS3 /// KIR2DS4 /// KIR3DL3 /// KIR3DL3 /// KIR3DS1 (11738374_at) / Fold change /veh KIR2DL2 /// KIR2DL4 /// KIR2DL5A /// KIR2DL5B /// KIR2DS1 /// KIR2DS2 /// KIR2DS3 /// KIR2DS4 /// KIR3DL3 /// KIR3DL3 /// KIR3DS1 (11738374_at) / RFU C1QL1 (11718748_at) / Fold change /veh C1QL1 (11718748_at) / RFU TMPRSS4 (11747572_a_at) / Fold change /veh TMPRSS4 (11747572_a_at) / RFU HAMP (11756126_x_at) / Fold change /veh HAMP (11756126_x_at) / RFU RNFT2 (11725882_a_at) / Fold change /veh RNFT2 (11725882_a_at) / RFU NR4A2 (11747474_a_at) / Fold change /veh NR4A2 (11747474_a_at) / RFU ABCC12 (11746883_a_at) / Fold change /veh ABCC12 (11746883_a_at) / RFU TMEM136 (11760407_x_at) / Fold change /veh TMEM136 (11760407_x_at) / RFU CLDN22 /// WWC2 (11732394_at) / Fold change /veh CLDN22 /// WWC2 (11732394_at) / RFU HLA-DPB1 (11760878_x_at) / Fold change /veh HLA-DPB1 (11760878_x_at) / RFU SPINT1 (11716480_a_at) / Fold change /veh SPINT1 (11716480_a_at) / RFU GAP43 (11754022_s_at) / Fold change /veh GAP43 (11754022_s_at) / RFU A4GNT (11735810_at) / Fold change /veh A4GNT (11735810_at) / RFU PRB3 (11715151_x_at) / Fold change /veh PRB3 (11715151_x_at) / RFU TUBB4B (11761932_at) / Fold change /veh TUBB4B (11761932_at) / RFU CAPN14 (11732068_a_at) / Fold change /veh CAPN14 (11732068_a_at) / RFU TMCC2 (11721928_a_at) / Fold change /veh TMCC2 (11721928_a_at) / RFU IRGQ (11745062_a_at) / Fold change /veh IRGQ (11745062_a_at) / RFU FAM174B (11720279_a_at) / Fold change /veh FAM174B (11720279_a_at) / RFU TMPRSS4 (11748680_a_at) / Fold change /veh TMPRSS4 (11748680_a_at) / RFU FAM212B (11763350_a_at) / Fold change /veh FAM212B (11763350_a_at) / RFU PLEKHG5 (11743358_a_at) / Fold change /veh PLEKHG5 (11743358_a_at) / RFU ZSCAN30 (11745921_a_at) / Fold change /veh ZSCAN30 (11745921_a_at) / RFU CMKLR1 (11741424_a_at) / Fold change /veh CMKLR1 (11741424_a_at) / RFU LOC101060620 /// MAPK8IP1 (11723275_at) / Fold change /veh LOC101060620 /// MAPK8IP1 (11723275_at) / RFU SPTSSB (11747773_x_at) / Fold change /veh SPTSSB (11747773_x_at) / RFU PRSS12 (11739890_at) / Fold change /veh PRSS12 (11739890_at) / RFU BIN1 (11741810_x_at) / Fold change /veh BIN1 (11741810_x_at) / RFU WNT11 (11732464_a_at) / Fold change /veh WNT11 (11732464_a_at) / RFU C10orf10 (11716521_a_at) / Fold change /veh C10orf10 (11716521_a_at) / RFU C5orf56 (11738089_at) / Fold change /veh C5orf56 (11738089_at) / RFU CYB561 (11721691_x_at) / Fold change /veh CYB561 (11721691_x_at) / RFU ANKRD19P (11752326_a_at) / Fold change /veh ANKRD19P (11752326_a_at) / RFU OR2T12 /// OR2T33 /// OR2T8 (11738714_s_at) / Fold change /veh OR2T12 /// OR2T33 /// OR2T8 (11738714_s_at) / RFU VCAN (11748164_a_at) / Fold change /veh VCAN (11748164_a_at) / RFU JSRP1 (11732532_at) / Fold change /veh JSRP1 (11732532_at) / RFU KRTAP10-11 (11738290_x_at) / Fold change /veh KRTAP10-11 (11738290_x_at) / RFU MYO3A (11730013_a_at) / Fold change /veh MYO3A (11730013_a_at) / RFU EBF3 (11725865_a_at) / Fold change /veh EBF3 (11725865_a_at) / RFU CAMK2N1 (11719241_x_at) / Fold change /veh CAMK2N1 (11719241_x_at) / RFU C5orf56 (11738088_a_at) / Fold change /veh C5orf56 (11738088_a_at) / RFU OLFML3 (11715873_a_at) / Fold change /veh OLFML3 (11715873_a_at) / RFU LOC100653217 /// NTM (11731650_a_at) / Fold change /veh LOC100653217 /// NTM (11731650_a_at) / RFU MAPK11 (11762145_a_at) / Fold change /veh MAPK11 (11762145_a_at) / RFU FIZ1 (11724087_x_at) / Fold change /veh FIZ1 (11724087_x_at) / RFU OASL (11726364_x_at) / Fold change /veh OASL (11726364_x_at) / RFU SOX15 (11748057_x_at) / Fold change /veh SOX15 (11748057_x_at) / RFU CD79A (11719716_a_at) / Fold change /veh CD79A (11719716_a_at) / RFU HIST1H1D (11736915_at) / Fold change /veh HIST1H1D (11736915_at) / RFU CASKIN2 (11723855_a_at) / Fold change /veh CASKIN2 (11723855_a_at) / RFU LOC730098 (11760151_x_at) / Fold change /veh LOC730098 (11760151_x_at) / RFU OR4N2 (11742367_at) / Fold change /veh OR4N2 (11742367_at) / RFU PRRT2 (11749266_a_at) / Fold change /veh PRRT2 (11749266_a_at) / RFU SNX32 (11753110_a_at) / Fold change /veh SNX32 (11753110_a_at) / RFU CDHR5 (11726645_a_at) / Fold change /veh CDHR5 (11726645_a_at) / RFU RCAN1 (11760418_a_at) / Fold change /veh RCAN1 (11760418_a_at) / RFU FAM167A (11723789_a_at) / Fold change /veh FAM167A (11723789_a_at) / RFU FAM26E (11764081_at) / Fold change /veh FAM26E (11764081_at) / RFU ISYNA1 (11749810_s_at) / Fold change /veh ISYNA1 (11749810_s_at) / RFU ACY1 (11761880_at) / Fold change /veh ACY1 (11761880_at) / RFU 11764098_at / Fold change /veh 11764098_at / RFU SAMD14 (11745864_x_at) / Fold change /veh SAMD14 (11745864_x_at) / RFU NPB (11741838_a_at) / Fold change /veh NPB (11741838_a_at) / RFU TMPRSS6 (11731388_a_at) / Fold change /veh TMPRSS6 (11731388_a_at) / RFU KRTAP10-2 (11738614_at) / Fold change /veh KRTAP10-2 (11738614_at) / RFU ARHGAP8 /// PRR5-ARHGAP8 (11727945_x_at) / Fold change /veh ARHGAP8 /// PRR5-ARHGAP8 (11727945_x_at) / RFU KRTAP5-7 /// NADSYN1 (11734609_at) / Fold change /veh KRTAP5-7 /// NADSYN1 (11734609_at) / RFU RASL12 (11751679_a_at) / Fold change /veh RASL12 (11751679_a_at) / RFU CDKN2B (11736163_a_at) / Fold change /veh CDKN2B (11736163_a_at) / RFU PRF1 (11729649_at) / Fold change /veh PRF1 (11729649_at) / RFU, ZNF638 /// ZNF638-IT1 / Fold change vs veh, ZNF638 /// ZNF638-IT1 / RFU, PANK3 / Fold change vs veh, PANK3 / RFU, SH3YL1 / Fold change vs veh, SH3YL1 / RFU, ZEB2 / Fold change vs veh, ZEB2 / RFU, NRIP1 / Fold change vs veh, NRIP1 / RFU, PTTG1IP / Fold change vs veh, PTTG1IP / RFU, CAPN2 / Fold change vs veh, CAPN2 / RFU, MED14 / Fold change vs veh, MED14 / RFU, SNORA58 / Fold change vs veh, SNORA58 / RFU, C1orf63 / Fold change vs veh, C1orf63 / RFU, LRRFIP1 / Fold change vs veh, LRRFIP1 / RFU, NDUFAF7 / Fold change vs veh, NDUFAF7 / RFU, SLC12A2 / Fold change vs veh, SLC12A2 / RFU, IBTK / Fold change vs veh, IBTK / RFU, ESF1 / Fold change vs veh, ESF1 / Fold change vs veh, TMEM50B / RFU, TAOK1 / Fold change vs veh, TAOK1 / RFU, ACBD3 / Fold change vs veh, ACBD3 / RFU, TMA16 / Fold change vs veh, TMA16 / RFU, RWDD3 / Fold change vs veh, RWDD3 / RFU, BCAT1 / Fold change vs veh, BCAT1 / RFU, EDEM3 / Fold change vs veh, EDEM3 / RFU, TMEM33 / Fold change vs veh, TMEM33 / RFU, WDR75 / Fold change vs veh, WDR75 / RFU, AHCTF1 / Fold change vs veh, AHCTF1 / RFU, TFRC / Fold change vs veh, TFRC / RFU, ZDHHC17 / Fold change vs veh, ZDHHC17 / RFU, NOM1 / Fold change vs veh, NOM1 / RFU, ARL8B / Fold change vs veh, ARL8B / RFU, ZBTB11 / Fold change vs veh, ZBTB11 / RFU, TAMM41 / Fold change vs veh, TAMM41 / RFU, KIAA1704 /// LOC100996395 / Fold change vs veh, KIAA1704 /// LOC100996395 / RFU, ING1 / Fold change vs veh, ING1 / RFU, TRMT61B / Fold change vs veh, TRMT61B / RFU, FUBP3 / Fold change vs veh, FUBP3 / RFU, TP53 / Fold change vs veh, TP53 / RFU, TNKS2 / Fold change vs veh, TNKS2 / RFU, ZFP14 / Fold change vs veh, ZFP14 / RFU, ACTR2 / Fold change vs veh, ACTR2 / RFU, PPP3R1 / Fold change vs veh, PPP3R1 / RFU, PIK3R1 / Fold change vs veh, PIK3R1 / RFU, HNRNPA1 / Fold change vs veh, HNRNPA1 / RFU, RNF170 / Fold change vs veh, RNF170 / RFU, ZNF28 / Fold change vs veh, ZNF28 / RFU, RNGTT / Fold change vs veh, RNGTT / RFU, OGT / Fold change vs veh, OGT / RFU, BRD1 / Fold change vs veh, BRD1 / RFU, MARS / Fold change vs veh, MARS / RFU, ZNF655 / Fold change vs veh, ZNF655 / RFU, FAHD1 / Fold change vs veh, FAHD1 / RFU, BDP1 / Fold change vs veh, BDP1 / RFU, LRRCC1 / Fold change vs veh, LRRCC1 / RFU, ARID1A / Fold change vs veh, ARID1A / RFU, ZNF146 / Fold change vs veh, ZNF146 / RFU, ZNF330 / Fold change vs veh, ZNF330 / RFU, GPN3 / Fold change vs veh, GPN3 / RFU, C9orf123 / Fold change vs veh, C9orf123 / RFU, N4BP2L2 / Fold change vs veh, N4BP2L2 / RFU, ARFIP1 / Fold change vs veh, ARFIP1 / RFU, FAM179B / Fold change vs veh, FAM179B / RFU, BCL10 / Fold change vs veh, BCL10 / RFU, UHRF1BP1L / Fold change vs veh, UHRF1BP1L / RFU, BET1 / Fold change vs veh, BET1 / RFU, CNOT2 / Fold change vs veh, CNOT2 / RFU, ZNF268 / Fold change vs veh, ZNF268 / Fold change vs veh, ZNF507 / RFU, DGCR2 / Fold change vs veh, DGCR2 / RFU, WDSUB1 / Fold change vs veh, WDSUB1 / Fold change vs veh, HSP90B1 /// MIR3652 / RFU, ADSS / Fold change vs veh, ADSS / RFU, GK / Fold change vs veh, GK / RFU, ZNF148 / Fold change vs veh, ZNF148 / RFU, TAF9 / Fold change vs veh, TAF9 / RFU, SLC1A5 / Fold change vs veh, SLC1A5 / RFU, SLMO2 / Fold change vs veh, SLMO2 / RFU, ABCC4 / Fold change vs veh, ABCC4 / RFU, LOC101060439 /// RAP1B / Fold change vs veh, LOC101060439 /// RAP1B / RFU, RFX7 / Fold change vs veh, RFX7 / RFU, GTPBP10 / Fold change vs veh, GTPBP10 / RFU, CNEP1R1 / Fold change vs veh, CNEP1R1 / RFU, BIVM-ERCC5 /// ERCC5 / Fold change vs veh, BIVM-ERCC5 /// ERCC5 / RFU, ILF3 / Fold change vs veh, ILF3 / RFU 11762660_at / Fold change /veh 11762660_at / RFU VCAN (11757783_s_at) / Fold change /veh VCAN (11757783_s_at) / RFU DDX43 (11728927_at) / Fold change /veh DDX43 (11728927_at) / RFU KRT8 (11758188_x_at) / Fold change /veh KRT8 (11758188_x_at) / RFU NKD1 (11759106_at) / Fold change /veh NKD1 (11759106_at) / RFU SRD5A1 (11742802_a_at) / Fold change /veh SRD5A1 (11742802_a_at) / RFU TPSAB1 /// TPSB2 (11721975_s_at) / Fold change /veh TPSAB1 /// TPSB2 (11721975_s_at) / RFU GSTM3 (11746129_a_at) / Fold change /veh GSTM3 (11746129_a_at) / RFU IL23R (11737362_x_at) / Fold change /veh IL23R (11737362_x_at) / RFU TMEM51 (11727254_a_at) / Fold change /veh TMEM51 (11727254_a_at) / RFU PIWIL2 (11732686_x_at) / Fold change /veh PIWIL2 (11732686_x_at) / RFU ORM1 (11744905_x_at) / Fold change /veh ORM1 (11744905_x_at) / RFU CCDC152 (11743942_at) / Fold change /veh CCDC152 (11743942_at) / RFU ECM1 (11717891_a_at) / Fold change /veh ECM1 (11717891_a_at) / RFU IL23R (11748794_a_at) / Fold change /veh IL23R (11748794_a_at) / RFU TNFAIP8L3 (11732012_x_at) / Fold change /veh TNFAIP8L3 (11732012_x_at) / RFU MBOAT4 (11741988_at) / Fold change /veh MBOAT4 (11741988_at) / RFU 11764193_at / Fold change /veh 11764193_at / RFU TMEM53 (11763286_at) / Fold change /veh TMEM53 (11763286_at) / RFU MAGEB2 (11727129_at) / Fold change /veh MAGEB2 (11727129_at) / RFU TMEM200A (11744735_a_at) / Fold change /veh TMEM200A (11744735_a_at) / RFU CCDC152 (11751479_a_at) / Fold change /veh CCDC152 (11751479_a_at) / RFU FAM211A (11726209_a_at) / Fold change /veh FAM211A (11726209_a_at) / RFU RGS16 (11746705_a_at) / Fold change /veh RGS16 (11746705_a_at) / RFU VCAN (11755009_s_at) / Fold change /veh VCAN (11755009_s_at) / RFU RHOB (11743442_s_at) / Fold change /veh RHOB (11743442_s_at) / RFU RGS16 (11720943_a_at) / Fold change /veh RGS16 (11720943_a_at) / RFU RGS16 (11720944_at) / Fold change /veh RGS16 (11720944_at) / RFU, VPS4B / Fold change vs veh, VPS4B / RFU, CREB1 / Fold change vs veh, CREB1 / RFU, DNAJC13 / Fold change vs veh, DNAJC13 / RFU, GNAQ / Fold change vs veh, GNAQ / RFU, CDK5R1 / Fold change vs veh, CDK5R1 / RFU, ZRANB3 / Fold change vs veh, ZRANB3 / RFU, CUL4A / Fold change vs veh, CUL4A / RFU, CCNY / Fold change vs veh, CCNY / RFU, UFL1 / Fold change vs veh, UFL1 / RFU, COG3 / Fold change vs veh, COG3 / RFU, DIAPH2 / Fold change vs veh, DIAPH2 / RFU, SKA2 / Fold change vs veh, SKA2 / RFU, AFF3 / Fold change vs veh, AFF3 / RFU, LMF1 / Fold change vs veh, LMF1 / RFU, IPO11 / Fold change vs veh, IPO11 / RFU, DFFB / Fold change vs veh, DFFB / RFU, FOXP1 / Fold change vs veh, FOXP1 / RFU, CARD8 / Fold change vs veh, CARD8 / RFU, STRN3 / Fold change vs veh, STRN3 / RFU, ADK / Fold change vs veh, ADK / RFU, RASSF2 / Fold change vs veh, RASSF2 / RFU, WIPF1 / Fold change vs veh, WIPF1 / RFU, LARP1B / Fold change vs veh, LARP1B / RFU, RASA1 / Fold change vs veh, RASA1 / RFU, RB1 / Fold change vs veh, RB1 / RFU, PPFIA1 / Fold change vs veh, PPFIA1 / RFU, MAT2A / Fold change vs veh, MAT2A / RFU, CCT5 / Fold change vs veh, CCT5 / RFU, WDR92 / Fold change vs veh, WDR92 / RFU, CUX1 / Fold change vs veh, CUX1 / RFU, TTC7A / Fold change vs veh, TTC7A / RFU, TMEM135 / Fold change vs veh, TMEM135 / RFU, DEPTOR / Fold change vs veh, DEPTOR / RFU, CPM / Fold change vs veh, CPM / RFU, DNAJB6 / Fold change vs veh, DNAJB6 / RFU, CACNA2D3 / Fold change vs veh, CACNA2D3 / RFU, DTX4 / Fold change vs veh, DTX4 / RFU, TFCP2 / Fold change vs veh, TFCP2 / RFU, GMCL1 /// GMCL1P1 / Fold change vs veh, GMCL1 /// GMCL1P1 / RFU, AEBP2 / Fold change vs veh, AEBP2 / RFU, SNHG1 /// SNORD22 /// SNORD25 /// SNORD26 /// SNORD27 /// SNORD28 /// SNORD29 /// SNORD31 / Fold change vs veh, SNHG1 /// SNORD22 /// SNORD25 /// SNORD26 /// SNORD27 /// SNORD28 /// SNORD29 /// SNORD31 / Fold change (Aza/veh), C12orf56 (ProbeSet 11735607_a_at) / Fold change (ACY-1035/veh), C12orf56 (ProbeSet 11735607_a_at) / Fold change (Aza/veh), FGFR1OP (ProbeSet 11751329_s_at) / Fold change (ACY-1035/veh), FGFR1OP (ProbeSet 11751329_s_at) / Fold change (Aza/veh), VPS36 (ProbeSet 11739960_a_at) / Fold change (ACY-1035/veh), VPS36 (ProbeSet 11739960_a_at) / RFU SYPL1 (11715823_x_at) / Fold change /veh SYPL1 (11715823_x_at) / RFU IGFBP7 (11715501_s_at) / Fold change /veh IGFBP7 (11715501_s_at) / RFU REEP3 (11722064_at) / Fold change /veh REEP3 (11722064_at) / RFU IGLL1 (11728026_x_at) / Fold change /veh IGLL1 (11728026_x_at): dose or concentration left out as unconfirmed
# Settings: ProbeSet 11753623_s_at; LIST D
smiles,measurement,value
Nc1ncn([C@@H]2O[C@H](CO)[C@@H](O)[C@H]2O)c(=O)n1 [azacitidine],"RFU, LOC101060439 /// RAP1B",283.36 RFU
